Here are results for four molecules from PMC3320797 (Chemical biology & drug design, 2010).

Data set [1] has as its target T1, p15-EC RNH fragment (Human immunodeficiency virus type 1 group M subtype B, UniProt P04585, DELINS1094-1102[…]). The experiment in a line: RNH activity of p15-EC RNH domain fragment, rapid fluorescence assay. To be noted: for IC50: read-out: Inhibition of the p15-EC RNH fragment (IC50), 2 mM Mn2+. In kind it is biochemical, HIV-1 / Escherichia coli chimera.
The target in data set [2] is T2, HIV-1 RT DNA polymerase (Human immunodeficiency virus type 1 group M subtype B, UniProt P04585). The data set is described as follows: RT RNA-dependent DNA polymerase activity assay. In kind it is biochemical. Conditions: read-out: Inhibition of RT DNA polymerase activity (IC50).
A short description of a further data set: Aqueous solubility. In kind it is physicochemical. Conditions: aqueous solution.
The target in data set [3] is p15-EC RNH domain fragment (Human immunodeficiency virus type 1 group M subtype B, UniProt P04585, DELINS1094-1102[…]). The experiment in a line: NMR 1H-15N HSQC chemical shift titration, dissociation constant. It is filed as binding, HIV-1 / Escherichia coli chimera. Conditions: read-out: Inhibitor dissociation constant, KD.
For data set [4], the target named is T1, p15-EC RNH fragment. Conditions: read-out: Inhibition of the p15-EC RNH fragment (IC50); ref [20]; cited from earlier work.
The target of data set [5] is T2, HIV-1 RT DNA polymerase. Conditions: read-out: Inhibition of RT DNA polymerase activity (IC50); ref [20]; cited from earlier work.
The next data set relates to HIV-1. To be noted: ref [21], [22]; cited from earlier work.

“Also recorded” adds a separate entry of the source. Read-outs that look alike come from different tables or passages of the source.

With `O=C(O)c1ccc(-c2cccc(/C=N/NC(=O)c3ccc(O)c(O)c3)c2)cc1` [BHMP03], the “Ratio of p15-EC RNH IC50 relative to BHMP07” value on p15-EC RNH fragment [1] (IC50 of BHMP03 versus BHMP07) is listed as “more than 50 times”. Further, the IC50 on p15-EC RNH fragment [1] and at HIV-1 RT DNA polymerase [2] was greater than 50 µM throughout. Also, the “Aqueous solubility relative to DHBNH” value in “Aqueous solubility” is “more soluble in aqueous solution than the naphthyl-based DHBNH”.

As to `O=C(O)c1ccc(-c2cccc(/C=N/NC(=O)c3cc(O)c(O)c(O)c3)c2)cc1` [BHMP07], the IC50 on p15-EC RNH fragment [1] was 0.8 ± 0.06 µM; at HIV-1 RT DNA polymerase [2], 0.3 ± 0.2 µM. Besides, the Kd turned out to be 311 ± 41.5 µM in data set [3] (residue A76 (502), + 20 mM Mg2+); 192 ± 28.9 µM in data set [3] (residue A76 (502), no Mg2+); 372 ± 60.2 µM in data set [3] (residue I79 (505), + 20 mM Mg2+); 212 ± 20.1 µM in data set [3] (residue I79 (505), no Mg2+); 321 ± 26.2 µM in data set [3] (residue I114 (526), + 20 mM Mg2+); 217 ± 38.4 µM in data set [3] (residue I114 (526), no Mg2+). Also, the Kd turned out to be 454 ± 151 µM in data set [3] (residue K93, + 20 mM Mg2+); 194 ± 18.3 µM in data set [3] (residue K93, no Mg2+); 246 ± 72.8 µM in data set [3] (residue Q74 (500), + 20 mM Mg2+); 242 ± 18.2 µM in data set [3] (residue V124 (536), no Mg2+); 262 ± 135 µM in data set [3] (residue Y75 (501), + 20 mM Mg2+). In addition, in “Aqueous solubility”, the “Aqueous solubility relative to DHBNH” value is reported as “higher aqueous solubility than DHBNH; also recorded: more soluble in aqueous solution than the naphthyl-based DHBNH”. For the same molecule, in “Aqueous solubility” (inhibitor up to 0.8 mM, overnight incubation), the “Solubility at the levels used in the NMR studies” value was “not likely completely soluble in aqueous solution”.

Consider `COc1ccc2ccccc2c1/C=N/NC(=O)c1ccc(O)c(O)c1` [DHBNH, dihydroxy benzoyl naphthyl hydrazone], for which the half-inhibitory concentration (IC50) was 18.5 ± 3.4 µM on p15-EC RNH fragment [4] and greater than 25 µM on HIV-1 RT DNA polymerase [5].

In the case of `CC(C)c1ccc(O)c(=O)c(O)c1` [β-thujaplicinol], in the data set on HIV-1, the Antiviral activity entry was “neither of these compounds has antiviral activity”.
